Laboratory results from patent US20240293416A1, “TREATMENT OF LIVER DISORDERS WITH A THR-ß AGONIST” (Terns Pharmaceuticals, Inc., priority 2021, published 2024).
“Also recorded” adds a separate entry of the source.

Key:
[1] = Solubilizer compatibility in formulation study; format: physicochemical; details: co-formulation
Excerpt: The level of SLS between 1.5% to 5.0% w/w was investigated.

[2] = Pharmacokinetics of 50 mg capsules with or without SLS in beagle dogs; format: in vivo; details: 50 mg capsule with vs without 5 wt % SLS
[3] = pH and solubilizer effect on solubility; format: physicochemical
Experimental: Solubility of Compound 1 (potassium salt) was evaluated at various pH levels.

[4] = Capsule stability studies under stressed conditions; format: physicochemical
Experimental: A direct encapsulation (DE) formulation study of Compound 1 was carried out. This work included DE process development for the preparation of 1 mg, 3 mg, 10 mg, 50 mg and placebo capsules by a semi-automatic or automatic capsule filling machine. Ingredients, ratios, filling weight, flowability and uniformity of the formulation were all evaluated. The developed processes are suitable for the manufacture of Compound 1 drug products for future clinical studies.
Silica gel desiccant was subsequently proposed for the packaging and proven to be effective to mitigate the formation of the impurity.
The effectiveness of the silica gel desiccant in minimizing the degradation was evaluated through comparative stability studies with or without desiccant included in the primary packaging. […] Therefore, packaging with 1 g desiccant was determined to improve product quality and increase product shelf life.

For `N#Cc1nn(-c2cc(Cl)c(Oc3n[nH]c(=O)c4ccccc34)c(Cl)c2)c(=O)[nH]c1=O` [Compound 1, 2-(3,5-dichloro-4-((4-oxo-3,4-dihydrophthalazin-1-yl)oxy)phenyl)-3,5-dioxo-2,3,4,5-tetrahydro-1,2,4-triazine-6-nitrile], the “compatibility with sodium lauryl sulfate (SLS)” value [1] was “good compatibility; also recorded: minimal or no degradation”, the “effect of ionic surfactants (e.g., SLS) on solubility” value [1] was “increased the aqueous solubility; also recorded: dramatic enhancement of solubility at all pH levels” and the “increase of exposure (Cmax, AUC) by formulation with 5 wt % SLS” value [2] was “more than 70%”. The aqueous solubility ([3]; even in the salt form) was “very low aqueous solubility”, the Solubility ([3]; pH 10.0 buffer, 24 h, with 2 wt % SLS, 25° C., potassium salt) was 308.2 µg/mL and the capsule short stability ([4]; 3 mg strength capsule, 60° C./75% RH, two weeks) was “a degradation impurity formed”. For the same compound, the “effect of desiccant packaging on degradation impurities” value ([4]; 1, 3, 10 and 50 mg capsules, 40° C./75% RH) was “significantly retarded the formation of degradation impurities”.
